Patent US20060234909A1, “Compositions and methods for increasing drug efficiency” (priority 2003, published 2006)
Read-outs that look alike come from different tables or passages of the source. Ends that are not written are not given here.

Experiments:
Human Src = biological target: T1, Human Src (Homo sapiens, UniProt P12931); assay: Src kinase assay (PKLight ATP utilization, substrate phosphorylation as % of parent peptide); format: biochemical
T1 construct: purchased Upstate (Charlottesville, Va.) 14-326
T1 sequence (P12931 whole entry): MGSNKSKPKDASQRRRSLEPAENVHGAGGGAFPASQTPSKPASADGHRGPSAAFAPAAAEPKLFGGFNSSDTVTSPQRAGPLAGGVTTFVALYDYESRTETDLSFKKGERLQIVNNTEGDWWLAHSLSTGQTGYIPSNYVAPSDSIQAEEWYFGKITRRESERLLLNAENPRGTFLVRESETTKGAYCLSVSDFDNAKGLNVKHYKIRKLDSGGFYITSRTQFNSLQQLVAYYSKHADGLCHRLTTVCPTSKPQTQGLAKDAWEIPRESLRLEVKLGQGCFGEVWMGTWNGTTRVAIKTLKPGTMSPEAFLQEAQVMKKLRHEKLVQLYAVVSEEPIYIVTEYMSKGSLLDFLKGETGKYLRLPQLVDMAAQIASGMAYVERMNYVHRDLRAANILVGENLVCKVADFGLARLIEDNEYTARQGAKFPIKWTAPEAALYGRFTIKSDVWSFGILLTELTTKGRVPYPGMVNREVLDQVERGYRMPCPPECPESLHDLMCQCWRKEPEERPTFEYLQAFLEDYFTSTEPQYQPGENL
Outline: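 Recombinant human Src or Akt phosphorylated peptide or drug–peptide conjugate substrates (25, 50, 100 μM) at 30° C for 2–5 hours, in Tris-HCl pH 7.5 buffer with MgCl2 and ATP. ATP use was read by luciferase luminescence against no-substrate and no-ATP controls. Phosphorylation was taken from the linear range and expressed as % of the parent peptide.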

MCF-7 breast carcinoma = assay: Cytotoxicity assay (monolayer), MCF-7; format: cell-based; details: MCF7, ML (monolayer); read-out: MCF7 (EC50 Ave) ML;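 further: cells treated 72 h with 6-8 compound doses versus DMSO vehicle controls, EC50 fitted by 4-parameter dose-response curves, averaged across all tests and lots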
in vitro = details: human
HUVEC = assay: Cytotoxicity assay (monolayer), HUVEC; format: cell-based; details: ML (monolayer), read-out: HUVEC (EC50 Ave) ML
[1] = test system: HT-29 colorectal carcinoma; assay: Cytotoxicity assay (monolayer), HT-29; format: cell-based; details: HT29, ML (monolayer); read-out: HT29 (EC50 Ave) ML;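 further: monolayer cultures tested in triplicate, compound exposure for three days against DMSO vehicle controls, EC50 fitted from dose-response curves and averaged across all tests and lots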
[2] = test system: Normal human foreskin fibroblasts (HFF); details: read-out: HFF (EC50 Ave) ML; HFF, ML (monolayer)
MCF-7 cells [3] = details: read-out: MCF7 (EC50 Ave) SA; MCF7, SA (soft agar)
HT-29 cells [4] = details: read-out: HT29 (EC50 Ave) SA; HT29, SA (soft agar)
tubulin = assay: Fluorescence-based tubulin polymerization assay (MPA; enhancement for paclitaxel, inhibition for vinblastine); format: biochemical
Outline: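 Tubulin polymerisation was followed by fluorescence (ex 360/em 405 nm) with 1 mg/ml BSA in all assays. For paclitaxel conjugates, glycerol was omitted. Parent drugs and conjugates were tested at 0.75, 1.5, 3 and 10 micromolar final, and values come from the linear range of the dose responses.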

[5] = Serum stability in RPMI1640 medium containing 10% fetal bovine serum; format: in vitro ADME; details: for remaining at 4 h, 10 μM / remaining at 8 h, 10 μM / remaining at 24 h, 10 μM / remaining at 72 h, 10 μM / half-life at 10 μM: bovine; for remaining at 4 h, 10 μM: read-out: Relative Percent Remaining at 4 hr; for remaining at 8 h, 10 μM: read-out: Relative Percent Remaining at 8 hr; for remaining at 24 h, 10 μM: read-out: Relative Percent Remaining at 24 hr; for remaining at 72 h, 10 μM: read-out: Relative Percent Remaining at 72 hr; for half-life at 10 μM: read-out: T½ (converted)
Description: The stability of conjugates was measured in RPMI1640 cell culture medium containing 10% fetal bovine serum. The serum-containing medium was pre-warmed at 37° C. for 3 min prior to addition of test articles. Test articles, prepared in DMSO as 5 mM stocks, were added to the cell culture media to a final concentration of 10 μM. Aliquots ([…]) were withdrawn in triplicate at 0, 4, 8, 24 and 72 hours and combined with the same volume of ice-cold acetonitrile to terminate the reaction. The mixture was centrifuged at 2,000×g for 10 minutes. One part of the supernatant was mixed with four parts of deionized water to bring down the percentage of organic solvent. The diluted samples were then assayed by LC/MS for the test article. The natural log of the percent remaining was plotted versus time. A linear fit was used to determine the rate constant. The fit was truncated after the percent of remaining test article was less than 10%. The elimination half-lives associated with the disappearance of test articles were determined to compare their relative stability. The assays were carried out by Absorption Systems (Exton, Pa.).

[6] = test system: tumor cells vs normal cells; assay: Cytotoxic selectivity index (normal cells in monolayer vs tumor cells in soft agar); details: HFF/HT29
HT-29 cells [7] = assay: cells; details: Homo sapiens, HT-29, read-out: HT-29 Soft Agar EC50
[8] = test system: Normal human foreskin fibroblasts (HFF); assay: cells; details: Fibroblast, 72 h, read-out: HFFMonolayer EC50
MCF-7 cells [9] = assay: cells; details: Homo sapiens, MCF7, read-out: MCF-7 Soft Agar EC50
Met kinase = Met kinase (Homo sapiens, UniProt P08581); details: Hays and Watowich 2003; read-out: Km as substrate for Met kinase; cited from earlier work
Met kinase, sequence (P08581 25-1390): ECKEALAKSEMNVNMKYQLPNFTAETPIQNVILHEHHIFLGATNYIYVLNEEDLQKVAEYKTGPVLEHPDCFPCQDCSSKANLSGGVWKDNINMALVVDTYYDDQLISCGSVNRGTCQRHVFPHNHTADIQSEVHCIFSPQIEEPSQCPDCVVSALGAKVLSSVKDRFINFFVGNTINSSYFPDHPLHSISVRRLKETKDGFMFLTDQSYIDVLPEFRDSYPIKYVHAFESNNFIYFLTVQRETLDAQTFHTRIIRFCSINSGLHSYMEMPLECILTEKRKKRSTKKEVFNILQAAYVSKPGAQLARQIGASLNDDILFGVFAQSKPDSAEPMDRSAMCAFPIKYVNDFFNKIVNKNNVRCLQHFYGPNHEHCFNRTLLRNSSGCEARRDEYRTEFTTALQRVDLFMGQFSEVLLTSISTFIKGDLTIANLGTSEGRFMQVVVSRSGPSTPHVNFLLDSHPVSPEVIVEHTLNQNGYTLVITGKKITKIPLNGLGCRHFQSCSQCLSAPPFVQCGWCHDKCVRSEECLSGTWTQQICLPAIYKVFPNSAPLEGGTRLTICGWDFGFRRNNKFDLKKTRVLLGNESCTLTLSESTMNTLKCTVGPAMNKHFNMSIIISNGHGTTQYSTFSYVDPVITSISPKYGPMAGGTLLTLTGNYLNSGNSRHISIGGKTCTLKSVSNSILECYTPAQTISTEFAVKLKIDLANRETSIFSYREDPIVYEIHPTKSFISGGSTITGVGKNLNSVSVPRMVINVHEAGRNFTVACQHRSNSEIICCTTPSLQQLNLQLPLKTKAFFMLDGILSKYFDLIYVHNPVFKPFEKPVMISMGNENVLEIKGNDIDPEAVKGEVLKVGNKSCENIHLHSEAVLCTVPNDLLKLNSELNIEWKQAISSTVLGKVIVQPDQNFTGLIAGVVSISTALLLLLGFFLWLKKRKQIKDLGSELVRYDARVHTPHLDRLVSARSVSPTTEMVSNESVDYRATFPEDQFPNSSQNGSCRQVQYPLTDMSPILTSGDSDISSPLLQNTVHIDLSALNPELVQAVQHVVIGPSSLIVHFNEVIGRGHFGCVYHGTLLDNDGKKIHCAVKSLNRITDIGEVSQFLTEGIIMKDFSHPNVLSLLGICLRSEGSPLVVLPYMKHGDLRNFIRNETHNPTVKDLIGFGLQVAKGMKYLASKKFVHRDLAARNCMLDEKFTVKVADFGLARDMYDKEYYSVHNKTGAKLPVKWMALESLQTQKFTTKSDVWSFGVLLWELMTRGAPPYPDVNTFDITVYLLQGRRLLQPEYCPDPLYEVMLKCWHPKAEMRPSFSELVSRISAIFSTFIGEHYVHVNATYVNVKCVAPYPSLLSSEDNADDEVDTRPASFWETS

Tie-2 = Tie-2 (Homo sapiens, UniProt Q02763); details: Deng et al. 2001; read-out: Km as substrate for Tie-2; cited from earlier work
Tie-2, sequence (Q02763 23-1124, species assumed): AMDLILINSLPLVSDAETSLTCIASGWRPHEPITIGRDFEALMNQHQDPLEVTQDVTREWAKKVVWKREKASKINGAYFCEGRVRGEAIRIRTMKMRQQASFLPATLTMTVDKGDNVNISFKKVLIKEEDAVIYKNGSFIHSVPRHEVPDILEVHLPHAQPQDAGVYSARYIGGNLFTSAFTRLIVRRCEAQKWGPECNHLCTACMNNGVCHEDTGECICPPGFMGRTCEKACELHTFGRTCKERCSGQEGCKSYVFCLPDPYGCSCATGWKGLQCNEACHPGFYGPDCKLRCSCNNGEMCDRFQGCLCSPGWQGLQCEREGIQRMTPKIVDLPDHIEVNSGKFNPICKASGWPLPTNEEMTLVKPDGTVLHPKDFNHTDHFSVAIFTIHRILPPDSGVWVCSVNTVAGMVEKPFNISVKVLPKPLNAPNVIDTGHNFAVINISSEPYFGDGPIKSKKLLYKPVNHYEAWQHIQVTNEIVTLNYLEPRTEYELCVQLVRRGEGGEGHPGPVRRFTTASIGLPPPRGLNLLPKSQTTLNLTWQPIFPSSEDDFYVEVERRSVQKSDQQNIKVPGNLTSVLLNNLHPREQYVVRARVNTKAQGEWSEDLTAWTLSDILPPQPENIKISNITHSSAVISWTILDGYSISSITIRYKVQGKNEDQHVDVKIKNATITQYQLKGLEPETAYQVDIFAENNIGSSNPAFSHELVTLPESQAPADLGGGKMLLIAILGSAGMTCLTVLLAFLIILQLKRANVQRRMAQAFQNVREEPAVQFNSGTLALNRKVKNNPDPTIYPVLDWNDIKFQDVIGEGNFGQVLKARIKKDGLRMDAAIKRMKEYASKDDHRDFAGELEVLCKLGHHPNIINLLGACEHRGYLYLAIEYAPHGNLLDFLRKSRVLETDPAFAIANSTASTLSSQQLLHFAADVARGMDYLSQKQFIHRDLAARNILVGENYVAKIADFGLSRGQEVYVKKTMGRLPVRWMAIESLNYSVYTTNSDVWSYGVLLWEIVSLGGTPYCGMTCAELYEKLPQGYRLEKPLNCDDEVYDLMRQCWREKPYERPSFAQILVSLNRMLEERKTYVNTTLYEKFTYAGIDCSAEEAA

CC[C@H](C)[C@H](NC(=O)[C@H](Cc1ccc(O)cc1)NC(=O)[C@H](CCC(=O)O)NC(C)=O)C(=O)N[C@@H](Cc1ccc(O)cc1)C(=O)NCC(=O)N[C@@H](CO)C(=O)N[C@@H](Cc1ccccc1)C(=O)N[C@@H](CCCCN)C(=O)NCCCOCCOCCOCCCNC(=O)O[C@H]1C(=O)[C@@]2(C)[C@H]([C@H](OC(=O)c3ccccc3)[C@]3(O)C[C@H](OC(=O)[C@H](O)[C@@H](NC(=O)c4ccccc4)c4ccccc4)C(C)=C1C3(C)C)[C@]1(OC(C)=O)CO[C@@H]1C[C@@H]2O
Average src kinase activity (Human Src): C (C>40) | EC50 (MCF-7 breast carcinoma): > 100 nM | selectivity ratio (in vitro): 24.1 | EC50 (HUVEC): > 100 nM | EC50 [1]: > 100 nM | EC50 [2]: > 100 nM | EC50 (MCF-7 cells [3]): > 100 nM | EC50 (HT-29 cells [4]): > 100 nM | Ave. MPA Act. (tubulin): B (B=50-80) | Relative Percent Remaining at 0 hr [5]: 100% | remaining at 4 h, 10 μM [5]: 95% | remaining at 8 h, 10 μM [5]: 99% | remaining at 24 h, 10 μM [5]: 69% | remaining at 72 h, 10 μM [5]: 22% | half-life at 10 μM [5]: 32 h | Cytotoxic Selectivity Index HFF/HT29 [6]: 20.5

CC[C@]1(O)C[C@@H]2CN(CCc3c([nH]c4ccccc34)[C@@](C(=O)OC)(c3cc4c(cc3OC)N(C)[C@H]3[C@@](O)(C(=O)OC)[C@H](OC(C)=O)[C@]5(CC)C=CCN6CC[C@]43[C@@H]65)C2)C1 [Vinblastine, reference compound]
EC50 (HT-29 cells [7]): 7 ± 7 nM | selectivity ratio (in vitro): 0.2 | EC50 [8]: 1.5 ± 0.5 nM | EC50 (MCF-7 cells [9]): 7 ± 5 nM | Relative Percent Remaining at 0 hr [5]: 100% | remaining at 4 h, 10 μM [5]: 95% | remaining at 8 h, 10 μM [5]: 95% | remaining at 24 h, 10 μM [5]: 87% | remaining at 72 h, 10 μM [5]: 67% | half-life at 10 μM [5]: > 72 h

DSDVHVNATYVNVKCVAP [18 amino acid peptide substrate for Met kinase]
Km (Met kinase): 67 µM

RLVAYEGWV [nine amino acid peptide substrate for Tie-2]
Km (Tie-2): 119 µM
